Entries after “also recorded” stand apart in the source; their conditions may differ.
Assays:
Perfringolysin O (PFO) = Perfringolysin O (PFO) (Clostridium perfringens, UniProt P0C2E9); assay: cell-based
wild-type PLY [1] = target: T1, wild-type PLY (Streptococcus pneumoniae, UniProt Q7ZAK5); assay: cell-based; assay type: cell-based
PLY [2] = target: T2, PLY (Streptococcus pneumoniae, UniProt Q7ZAK5); assay: cell-based; assay type: cell-based
K562 cells = settings: 6 µM
[3] = tested on: Streptococcus pneumoniae (S.pn.) D39Δcps; assay type: cell-based
PLY [4] = target: T2, PLY
wild-type PLY [5] = target: T1, wild-type PLY; assay: biochemical; assay type: binding
[6] = target: protein tyrosine phosphatase PTP1B (Homo sapiens, UniProt P18031); assay type: biochemical
Sequence of protein tyrosine phosphatase PTP1B (P18031 whole entry): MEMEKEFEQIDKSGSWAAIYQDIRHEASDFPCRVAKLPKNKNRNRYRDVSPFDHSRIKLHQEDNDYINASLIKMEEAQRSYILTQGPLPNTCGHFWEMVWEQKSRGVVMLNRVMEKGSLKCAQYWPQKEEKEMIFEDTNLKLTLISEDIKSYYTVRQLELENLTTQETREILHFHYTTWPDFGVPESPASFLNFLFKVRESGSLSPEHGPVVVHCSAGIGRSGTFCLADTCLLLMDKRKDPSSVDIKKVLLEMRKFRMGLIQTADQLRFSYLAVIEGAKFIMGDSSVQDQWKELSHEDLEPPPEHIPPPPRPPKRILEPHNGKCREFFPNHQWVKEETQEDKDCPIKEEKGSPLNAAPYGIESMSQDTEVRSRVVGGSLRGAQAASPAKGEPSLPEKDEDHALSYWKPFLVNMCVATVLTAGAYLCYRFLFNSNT

perforin = perforin (Homo sapiens, UniProt P14222); assay type: cell-based
Sequence of perforin (P14222 22-555): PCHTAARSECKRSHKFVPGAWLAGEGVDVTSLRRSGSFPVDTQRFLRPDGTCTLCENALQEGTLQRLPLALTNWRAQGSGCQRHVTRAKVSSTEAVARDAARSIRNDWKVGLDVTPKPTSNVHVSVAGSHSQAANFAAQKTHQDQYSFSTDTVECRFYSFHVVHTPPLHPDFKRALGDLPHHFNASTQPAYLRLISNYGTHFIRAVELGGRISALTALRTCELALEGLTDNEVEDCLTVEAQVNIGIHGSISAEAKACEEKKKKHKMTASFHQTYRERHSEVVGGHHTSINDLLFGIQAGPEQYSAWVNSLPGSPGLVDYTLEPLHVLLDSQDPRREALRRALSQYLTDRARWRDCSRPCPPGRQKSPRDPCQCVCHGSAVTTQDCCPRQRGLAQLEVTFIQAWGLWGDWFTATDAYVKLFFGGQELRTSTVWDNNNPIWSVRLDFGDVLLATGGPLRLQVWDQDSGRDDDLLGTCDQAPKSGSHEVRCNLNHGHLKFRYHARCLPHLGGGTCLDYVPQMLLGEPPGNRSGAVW

SARS-CoV2 main protease = SARS-CoV2 main protease (Severe acute respiratory syndrome coronavirus 2, UniProt P0DTD1); assay type: biochemical

T2 sequence (Q7ZAK5 whole entry, looked up): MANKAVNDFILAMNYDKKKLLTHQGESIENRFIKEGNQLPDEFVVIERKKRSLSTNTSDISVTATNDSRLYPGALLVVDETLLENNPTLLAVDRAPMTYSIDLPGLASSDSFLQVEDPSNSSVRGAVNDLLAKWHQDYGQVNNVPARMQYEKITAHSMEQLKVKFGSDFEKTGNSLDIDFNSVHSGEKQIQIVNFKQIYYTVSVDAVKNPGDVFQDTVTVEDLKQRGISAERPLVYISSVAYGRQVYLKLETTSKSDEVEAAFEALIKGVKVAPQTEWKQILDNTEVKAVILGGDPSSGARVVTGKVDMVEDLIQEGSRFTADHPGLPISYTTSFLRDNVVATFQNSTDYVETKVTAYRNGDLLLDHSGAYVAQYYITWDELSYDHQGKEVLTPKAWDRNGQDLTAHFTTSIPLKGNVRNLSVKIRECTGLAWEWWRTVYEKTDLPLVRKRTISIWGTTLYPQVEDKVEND
T1 sequence (Q7ZAK5 whole entry, looked up): as above
Sequence of Perfringolysin O (PFO) (P0C2E9 29-500 limits assumed): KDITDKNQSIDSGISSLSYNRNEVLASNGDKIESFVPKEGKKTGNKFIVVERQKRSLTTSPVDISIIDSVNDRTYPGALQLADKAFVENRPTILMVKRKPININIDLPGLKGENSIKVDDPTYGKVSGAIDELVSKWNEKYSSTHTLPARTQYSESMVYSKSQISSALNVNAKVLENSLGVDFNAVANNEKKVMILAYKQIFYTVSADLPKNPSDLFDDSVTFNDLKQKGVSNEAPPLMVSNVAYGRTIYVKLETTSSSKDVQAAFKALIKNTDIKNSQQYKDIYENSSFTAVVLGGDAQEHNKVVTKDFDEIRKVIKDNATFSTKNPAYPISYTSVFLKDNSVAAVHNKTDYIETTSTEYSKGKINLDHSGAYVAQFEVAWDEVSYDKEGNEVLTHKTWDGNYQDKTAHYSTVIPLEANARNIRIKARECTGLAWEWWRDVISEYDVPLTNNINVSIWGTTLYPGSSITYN

In the case of `COc1ccc(C=C2C(=O)NC(=O)NC2=O)cc1COc1ccc(F)cc1F` [PB-1], the IC50 (Perfringolysin O (PFO)) is reported as 4.6 µM, the IC50 (wild-type PLY [1]) is reported as 38 ± 6 µM and the “Inhibition of hemoglobin release, virtual hit screen” value (wild-type PLY [1]) is reported as “actively hindering hemoglobin release at all three concentrations; also recorded: displayed inhibition”. The “Inhibition of PLY-induced cellular damage, LDH assay (qualitative)” value (PLY [2]) was “significant concentration-dependent inhibition of PLY”.
For `Cc1cc(C)cc(N2C(=O)CC(=O)NC2=O)c1` [PB-2.3], the “IC50 (95% CI), inhibition of hemolysis by wild-type PLY” value (wild-type PLY [1]) was “Inactive” and the “PLY inhibition in the hemolysis assay (qualitative)” value (wild-type PLY [1]) was “no inhibitors; also recorded: did not inhibit PLY alone”.
With `O=Cc1ccc(-c2ccc(Cl)cc2Cl)o1` [PB-3.1] the “PLY inhibition in the hemolysis assay (qualitative)” value (wild-type PLY [1]) was “no inhibitors; also recorded: did not inhibit PLY alone”.
With `Cc1cc(C)cc(N2C(=O)NC(=O)/C(=C\c3ccc(-c4ccc(Cl)cc4Cl)o3)C2=O)c1` [PB-3] the “Cytotoxicity for K562 cells alone” value (K562 cells) was “not cytotoxic”, the “Survival of A549 cells infected with D39Δcps” value [3] was “almost entirely survived” and the “duration of activity in the cellular infection assays” value [3] was “about 4 h”. The “Effect of inhibitor alone on A549 cells” value (PLY [4]) was “harmless to cells”, the “Protection of A549 cells from PLY (microscopy)” value (PLY [4]) was “effectively protected cells from PLY-associated cellular damage” and the Kd (wild-type PLY [5]) was 0.256 µM. The residence time (wild-type PLY [5]) was 36.2 min, the koff (wild-type PLY [5]; read-out: koff (off-rate)) was 0.00046 s⁻¹ and the kon (wild-type PLY [5]; read-out: kon (on-rate)) was 1800 M⁻¹ s⁻¹. The “Inhibition of PTP1B” value [6] was “inactive; also recorded: without detecting inhibition”, the “Inhibition of lysis of K562 cells by NK cells” value (perforin) was “did not inhibit” and the “reduction of median target cell lysis compared to DMSO control” value (perforin) was 15.6%. For the same compound, the “Inhibition of SARS-CoV2 main protease” value (SARS-CoV2 main protease) was “inactive; also recorded: without detecting inhibition”, the “Inhibition of PLY-induced cellular damage, LDH assay (qualitative)” value (PLY [2]) was “significant concentration-dependent inhibition of PLY” and the “prevented cellular damage (LDH release)” value (PLY [2]) was “more than 95%”. For the same compound, the inhibition at 1 µM (PLY [2]; A549, read-out: inhibition of PLY in cellular experiments at 1 µM) was ~20% and the inhibition at 6 µM (PLY [2]; A549, read-out: inhibition of PLY in cellular experiments at 6 µM, 6 µM, after 24 h) was > 90%.

— article PMC11053136 (Nature Communications, 2024)
